Reference: US11124488B2, “Preparation of 2-([1,2,3]triazol-2-yl)-benzoic acid derivatives” (IDORSIA PHARMACEUTICALS LTD, priority 2017, dated 2021)

melting point [°C]	SMILES
178	COc1ccc(-n2nccn2)c(C(=O)N2CCC[C@@]2(C)C(=O)O)c1 [Reference Example 4.2, (S)-1-(5-methoxy-2-(2H-1,2,3-triazol-2-yl)benzoyl)-2-methylpyrrolidine-2-carboxylic acid]
185	COc1ccc(-n2nccn2)c(C(=O)N2CCC[C@@]2(C)C(=O)Nc2ccc(Cl)c(C)c2N)c1 [Reference Example 4.3, (S)—N-(2-amino-4-chloro-3-methylphenyl)-1-(5-methoxy-2-(2H-1,2,3-triazol-2-yl)benzoyl)-2 methylpyrrolidine-2-carboxamide]
